Measured values published in patent publication US5298411A, “Glucose dehydrogenase from pseudomonas” (Toyo Boseki Kabushiki Kaisha, priority 1990, dated 1994).
Read-outs that look alike come from different tables or passages of the source.

Tests used:
Type in all cases: biochemical, Pseudomonas sp. FH1227
[1] = test system: glucose dehydrogenase (EC1.1.1.47); test: Km value determination
[2] = test system: glucose dehydrogenase (EC1.1.1.47); test: Substrate specificity of the glucose dehydrogenase (enzyme activity determination); conditions: for Relative activity (%): Substrate (100 mM), β-D-glucose = 100.0
Excerpt: (2) Substrate specificity
(§1) (11) Enzyme activity determination
(A) 0.1M Tris-HCl buffer, pH 8.0
(§2) Calculation equation: [formula]
1.0=optical path length (cm)

[3] = test system: glucose dehydrogenase (EC1.1.1.47)
Protocol: as §1
The enzyme activity was determined by taking the enzyme activity producing 1 micromole of NADH per 1 minute under the conditions mentioned below as 1 unit.
1. The following reaction mixture is prepared in a cuvette (d=1 cm) and preheated at 37° C. for about 5 minutes.
2. An enzyme solution (0.05 ml) is added thereto, and the mixture is gently stirred. The change of absorbance at 340 nm is recorded for 5 minutes using a spectrophotometer controlled at 37° C. with water as the control. The change of absorbance per 1 minute is estimated on the basis of the linear portion from minute 2 to minute 5. (ΔOD test)
3. The blank test is conducted by following the same procedure as above except that 0.05 ml of […] (with phosphate buffer, pH 7.0) is used in place of the enzyme solution, to estimate the change in absorbance per 1 minute. (ΔOD blank)
as §2

[4] = read-out: Km value to the coenzyme
[5] = inhibitor concentration 2.0 × 10^-3 M, non added = 100.0

| Compound | Relative activity (%) [2] [%] | other results |
| --- | --- | --- |
| NC(=O)c1ccc[n+]([C@@H]2O[C@H](COP(=O)([O-])OP(=O)(O)OC[C@H]3O[C@@H](n4cnc5c(N)ncnc54)[C@H](O)[C@@H]3O)[C@@H](O)[C@H]2O)c1 [NAD] |  | Km [1, 4]: 0.308 mM |
| O=C(CO)[C@@H](O)[C@H](O)[C@H](O)CO [D-fructose] | 0.8 |  |
| OC[C@@H](O)[C@@H](O)[C@H](O)[C@@H](O)CO [D-sorbitol] | 0.1 |  |
| xylose | 8.9 |  |
| OC[C@H]1O[C@H](O[C@H]2[C@H](O)[C@@H](O)[C@H](O)O[C@@H]2CO)[C@H](O)[C@@H](O)[C@@H]1O [maltose] | 3.9 |  |
| [Cl][Hg][Cl] [mercury chloride] |  | Inhibition of the enzyme [3]: inhibited; Relative activity (%) [3, 5]: 5.9% |
| O=C(O)CI [monoiodoacetate] |  | Inhibition of the enzyme [3]: inhibited; Relative activity (%) [3]: 0.4% |
| O=[N+]([O-])[O-].[Ag+] [silver nitrate] |  | Inhibition of the enzyme [3]: inhibited; Relative activity (%) [3, 5]: 7.1% |
| OC[C@@H]1OC(O)[C@@H](O)[C@H](O)[C@H]1O (stereo partly drawn) [L-glucose] | 0.0 |  |
| O=C(CO)[C@@H](O)[C@H](O)[C@@H](O)CO [L-sorbose] | 0.3 |  |
| NC(=O)c1ccc[n+]([C@@H]2O[C@H](COP(=O)([O-])OP(=O)(O)OC[C@H]3O[C@@H](n4cnc5c(N)ncnc54)[C@H](OP(=O)(O)O)[C@@H]3O)[C@@H](O)[C@H]2O)c1 [NADP] |  | Km [1, 4]: 0.0407 mM |
| OC[C@H]1O[C@@H](O[C@H]2[C@H](O)[C@@H](O)C(O)O[C@@H]2CO)[C@H](O)[C@@H](O)[C@H]1O (stereo partly drawn) [D-lactose] | 1.2 |  |
| OC[C@H]1O[C@@H](O)[C@H](O)[C@@H](O)[C@@H]1O [β-D-glucose] | 100.0 | Substrate specificity [2]: specifically acts on; Km ([1]; coenzyme NAD, read-out: Km value to β-D-glucose): 13.8 mM; Km ([1]; coenzyme NADP, read-out: Km value to β-D-glucose): 12.5 mM |
| OC[C@@H](O)[C@@H](O)[C@H](O)[C@H](O)CO [D-mannitol] | 0.0 |  |
| OC[C@H]1O[C@@](CO)(O[C@H]2O[C@H](CO)[C@@H](O)[C@H](O)[C@H]2O)[C@@H](O)[C@@H]1O [saccharose] | 0.0 |  |
| O[C@H]1[C@H](O)[C@@H](O)[C@H](O)[C@@H](O)[C@H]1O [inositol] | 0.2 |  |
| 2-deoxy-glucose | 119.7 | Substrate specificity [2]: specifically acts on |
| OC[C@H]1OC(O)[C@@H](O)[C@@H](O)[C@@H]1O (stereo partly drawn) [D-mannose] | 2.4 |  |
| OC[C@H]1OC(O)[C@H](O)[C@@H](O)[C@H]1O (stereo partly drawn) [D-galactose] | 0.1 |  |
